Like-named read-outs stand apart in the source and are kept apart here.
Assays:
C. parvum [1] = format: cell-based, Cryptosporidium parvum; settings: compound at EC90; for Invasion Assay: Mean % Inhibition (parasites), Average: average of replicates; for effect on host cell invasion / parasitophorous vacuole formation: result in words; for Invasion Assay: Mean % Inhibition (parasites), Replicate 1a: single biological replicate 1; for Invasion Assay: Mean % Inhibition (parasites), Replicate 2a: single biological replicate 2; for Invasion Assay: Mean % Inhibition (parasites), Replicate 3a: single biological replicate 3; for Invasion Assay: Mean % Inhibition (parasites), Replicate 4a: single biological replicate 4
Procedure: The first step in infection is host cell invasion, which involves a complex process encompassing oocyst excystation, parasite motility, adhesion, and parasitophorous vacuole formation (Fig. 2a). Our strategy to assay for compounds affecting invasion was simply to expose C. parvum to compounds immediately after triggering excystation and throughout the invasion process, and then enumerate the parasite vacuoles after 3 h, prior to allowing the parasites to replicate (summarized in Fig. 2b).
Fig. 2 Invasion Assay. a Overview of life cycle stage investigated during the invasion assay. Representative TEM images of a C. parvum oocyst and HCT-8 cell shortly after infection (Scale bar = 500 nm). b Schematic of experimental design. […] Each point represents the mean and SD of at least two biological replicates with four technical replicates per experiment.
C. parvum invasion inhibition was measured by modifying the 48 h growth inhibition assay described above. […] In parallel, Iowa strain oocysts were excysted. […] Assay plates were incubated at 37 °C and 5% CO2 for 3 h.

C. parvum [2] = assay: DNA replication assay (EdU incorporation); format: cell-based, Cryptosporidium parvum; settings: compound at EC90; for DNA Synthesis Assay: Mean % Inhibition of EdU-labeling (normalized to parasite numbers), Average: average of replicates; for effect on C. parvum DNA replication / EdU incorporation: result in words; for DNA Synthesis Assay: Mean % Inhibition of EdU-labeling (normalized to parasite numbers), Replicate 1: single replicate 1; for DNA Synthesis Assay: Mean % Inhibition of EdU-labeling (normalized to parasite numbers), Replicate 2: single replicate 2; for DNA Synthesis Assay: Mean % Inhibition of EdU-labeling (normalized to parasite numbers), Replicate 3: single replicate 3; for DNA Synthesis Assay: Mean % Inhibition of EdU-labeling (normalized to parasite numbers), Replicate 4: single replicate 4
purified N-WASp = test system: purified N-WASp; design: method as in PMID 15235593; settings: at 10 µM; cited from earlier work
C. parvum [3] = settings: cited from earlier work; for activity in NSG mouse model: ref Jumani, et al. 2018. AAC.
C. parvum [4] = assay: NOD SCID gamma (NSG) mouse model of chronic cryptosporidiosis; format: in vivo; settings: oral gavage, 4-day treatment course
Text: It is feasible that Cryptosporidium is most susceptible to drug treatments that show the greatest activity in only one of the mode of action assays described above, which would complicate use of these assays for maintaining a diverse anticryptosporidial pipeline. Therefore, to further test the strategy of ensuring a mechanistically diverse pipeline of anticryptosporidials, it was critical to know that compounds belonging to different phenotypic effect clusters (as in Fig. 7) could work in vivo. For this, thirty-one of the thirty-nine compounds were tested in a mouse model of cryptosporidiosis. There is considerable variability in the in vivo efficacy of anticryptosporidials tested in different mouse models[15],[34]–[39], and it remains unknown which animal models will best predict drug efficacy in humans. […] The piperazine-based compound MMV665917, however, is efficacious in both the acute IFN-γ KO and chronic NSG mouse models. […] Given that the goal of this study was to determine if compounds belonging to different phenotypic clusters might be active in vivo, we assessed in vivo efficacy using the stringent NSG mouse model.
The NOD SCID gamma mouse model for treatment of established cryptosporidiosis was reported previously. […] Oocyst shedding in feces was monitored by qPCR for 18s rRNA gene with the primers Cp18s forward and Cp18s reverse. […]

Cryptosporidium [5] = settings: cited from earlier work
Cryptosporidium [6] = test system: Cryptosporidium; design: method as in earlier work; settings: ref Castellanos-Gonzalez, et al. 2013. JID. and Love, et al. 2017. PLoS NTD.; cited from earlier work
Cryptosporidium [7] = test system: Cryptosporidium; design: method as in Downey, et al. 2008. AAC.; settings: ref Downey, et al. 2008. AAC.; cited from earlier work
C. parvum [8] = assay: Time-lapse microscopy of live C. parvum egress; settings: 2 × EC90 (1.3 µM total)
Procedure: Cells were then imaged live with 5 min intervals using Nomarski optics and a ×60 oil objective (1.4 NA). […] After 3 h, cells were gently washed with warm complete media to remove oocyst shells before adding either compound or DMSO. Tiled 2 × 2 images were taken live at 20 min intervals using a ×40 dry objective (0.7 NA).

[9] = ref Love, et al. 2017. PLoS NTD.

CN(C)C[C@H](O)Cn1c2ccc(Br)cc2c2cc(Br)ccc21 (racemic) [Wiskostatin]
Invasion Assay: Mean % Inhibition (parasites), Average (C. parvum [1]): 88.58% | effect on host cell invasion / parasitophorous vacuole formation (C. parvum [1]): inhibited parasitophorous vacuole formation | effect on host cell invasion / parasitophorous vacuole formation (C. parvum [1]; listed as wiskostatin): active | Invasion Assay: Mean % Inhibition (parasites), Replicate 1a (C. parvum [1]): 90% | Invasion Assay: Mean % Inhibition (parasites), Replicate 2a (C. parvum [1]): 92% | Invasion Assay: Mean % Inhibition (parasites), Replicate 3a (C. parvum [1]): 82% | Invasion Assay: Mean % Inhibition (parasites), Replicate 4a (C. parvum [1]): 90% | DNA Synthesis Assay: Mean % Inhibition of EdU-labeling (normalized to parasite numbers), Average (C. parvum [2]): 36.39% | effect on C. parvum DNA replication / EdU incorporation (C. parvum [2]): active | DNA Synthesis Assay: Mean % Inhibition of EdU-labeling (normalized to parasite numbers), Replicate 1 (C. parvum [2]): 67.16% | DNA Synthesis Assay: Mean % Inhibition of EdU-labeling (normalized to parasite numbers), Replicate 2 (C. parvum [2]): 42.34% | DNA Synthesis Assay: Mean % Inhibition of EdU-labeling (normalized to parasite numbers), Replicate 3 (C. parvum [2]): 31.25% | DNA Synthesis Assay: Mean % Inhibition of EdU-labeling (normalized to parasite numbers), Replicate 4 (C. parvum [2]): 4.83% | inhibition of purified N-WASp (purified N-WASp): inhibit purified N-WASp

NC[C@@H]1O[C@H](O[C@H]2[C@@H](O)[C@H](O[C@@H]3[C@@H](O)[C@H](N)C[C@H](N)[C@H]3O[C@H]3O[C@H](CO)[C@@H](O)[C@H](O)[C@H]3N)O[C@@H]2CO)[C@H](N)[C@@H](O)[C@@H]1O [Paromomycin]
Invasion Assay: Mean % Inhibition (parasites), Average (C. parvum [1]): -28.42% | effect on host cell invasion / parasitophorous vacuole formation (C. parvum [1]): no significant effect on parasitophorous vacuole formation | Invasion Assay: Mean % Inhibition (parasites), Replicate 1a (C. parvum [1]): -32% | Invasion Assay: Mean % Inhibition (parasites), Replicate 2a (C. parvum [1]): -25% | DNA Synthesis Assay: Mean % Inhibition of EdU-labeling (normalized to parasite numbers), Average (C. parvum [2]): 18.81% | effect on C. parvum DNA replication / EdU incorporation (C. parvum [2]): no effect on EdU incorporation | DNA Synthesis Assay: Mean % Inhibition of EdU-labeling (normalized to parasite numbers), Replicate 1 (C. parvum [2]): -11.54% | DNA Synthesis Assay: Mean % Inhibition of EdU-labeling (normalized to parasite numbers), Replicate 2 (C. parvum [2]): 39.99% | DNA Synthesis Assay: Mean % Inhibition of EdU-labeling (normalized to parasite numbers), Replicate 3 (C. parvum [2]): 27.99% | activity in NSG mouse model (C. parvum [3]): active

CC(=O)Oc1ccccc1C(=O)Nc1ncc([N+](=O)[O-])s1 [Nitazoxanide]
Invasion Assay: Mean % Inhibition (parasites), Average (C. parvum [1]): 13.83% | effect on host cell invasion / parasitophorous vacuole formation (C. parvum [1]): no significant effect on parasitophorous vacuole formation | Invasion Assay: Mean % Inhibition (parasites), Replicate 1a (C. parvum [1]): 11% | Invasion Assay: Mean % Inhibition (parasites), Replicate 2a (C. parvum [1]): 17% | DNA Synthesis Assay: Mean % Inhibition of EdU-labeling (normalized to parasite numbers), Average (C. parvum [2]): -9.16% | DNA Synthesis Assay: Mean % Inhibition of EdU-labeling (normalized to parasite numbers), Replicate 1 (C. parvum [2]): -33.81% | DNA Synthesis Assay: Mean % Inhibition of EdU-labeling (normalized to parasite numbers), Replicate 2 (C. parvum [2]): 15.50% | efficacy in the NSG mouse model (reduction in fecal oocyst shedding) (C. parvum [4]): no effect

CCOc1ccc2cc(-c3nn(CC4CCN(C)CC4)c4ncnc(N)c34)ccc2c1 [BKI-1294]
Invasion Assay: Mean % Inhibition (parasites), Average (C. parvum [1]): -6.64% | Invasion Assay: Mean % Inhibition (parasites), Replicate 1a (C. parvum [1]): 12% | Invasion Assay: Mean % Inhibition (parasites), Replicate 2a (C. parvum [1]): -26% | DNA Synthesis Assay: Mean % Inhibition of EdU-labeling (normalized to parasite numbers), Average (C. parvum [2]): -5.73% | DNA Synthesis Assay: Mean % Inhibition of EdU-labeling (normalized to parasite numbers), Replicate 1 (C. parvum [2]): -9.55% | DNA Synthesis Assay: Mean % Inhibition of EdU-labeling (normalized to parasite numbers), Replicate 2 (C. parvum [2]): -1.92% | anticryptosporidial activity in the acute IFN-γ knockout mouse infection model (Cryptosporidium [5]; ref Castellanos-Gonzalez, et al. 2013. JID. and Love, et al. 2017. PLoS NTD.): previously demonstrated anticryptosporidial activity | anticryptosporidial activity in SCID beige mice (Cryptosporidium [6]): previously demonstrated anticryptosporidial activity

O=C(Nc1ccc(Cl)cc1)N1CCN(c2ccc3nncn3n2)CC1 [D-1]
Invasion Assay: Mean % Inhibition (parasites), Average (C. parvum [1]): -25.16% | Invasion Assay: Mean % Inhibition (parasites), Replicate 1a (C. parvum [1]): -22% | Invasion Assay: Mean % Inhibition (parasites), Replicate 2a (C. parvum [1]): -29% | DNA Synthesis Assay: Mean % Inhibition of EdU-labeling (normalized to parasite numbers), Average (C. parvum [2]): 23.98% | DNA Synthesis Assay: Mean % Inhibition of EdU-labeling (normalized to parasite numbers), Replicate 1 (C. parvum [2]): 20.68% | DNA Synthesis Assay: Mean % Inhibition of EdU-labeling (normalized to parasite numbers), Replicate 2 (C. parvum [2]): 7.95% | DNA Synthesis Assay: Mean % Inhibition of EdU-labeling (normalized to parasite numbers), Replicate 3 (C. parvum [2]): 36.52% | DNA Synthesis Assay: Mean % Inhibition of EdU-labeling (normalized to parasite numbers), Replicate 4 (C. parvum [2]): 30.78% | efficacy in chronic NSG mouse model (C. parvum [3]): efficacious | activity in NSG mouse model (C. parvum [3]): Active | efficacy in acute IFN-γ KO mouse model (Cryptosporidium [5]): efficacious

Cc1cc(/C=C/c2ccc3cc(N(C)C)ccc3[n+]2C)c(C)n1-c1ccccc1 [Pyrvinium pamoate]
Invasion Assay: Mean % Inhibition (parasites), Average (C. parvum [1]): 25.69% | Invasion Assay: Mean % Inhibition (parasites), Replicate 1a (C. parvum [1]): 30% | Invasion Assay: Mean % Inhibition (parasites), Replicate 2a (C. parvum [1]): 22% | DNA synthesis (mean % inhibition) (C. parvum [2]; EdU added 9 h post-infection for 2 h): 88.30% | DNA Synthesis Assay: Mean % Inhibition of EdU-labeling (normalized to parasite numbers), Replicate 1 (C. parvum [2]): 94.57% | DNA Synthesis Assay: Mean % Inhibition of EdU-labeling (normalized to parasite numbers), Replicate 2 (C. parvum [2]): 70.33% | anticryptosporidial activity in neonatal mouse model (Cryptosporidium [7]): previously demonstrated anticryptosporidial activity

CC(C)/N=c1\cc2n(-c3ccc(Cl)cc3)c3ccccc3nc-2cc1Nc1ccc(Cl)cc1 [Clofazimine]
Invasion Assay: Mean % Inhibition (parasites), Average (C. parvum [1]): 66.45% | Invasion Assay: Mean % Inhibition (parasites), Replicate 1a (C. parvum [1]): 65% | Invasion Assay: Mean % Inhibition (parasites), Replicate 2a (C. parvum [1]): 68% | DNA Synthesis Assay: Mean % Inhibition of EdU-labeling (normalized to parasite numbers), Average (C. parvum [2]): 88.58% | DNA Synthesis Assay: Mean % Inhibition of EdU-labeling (normalized to parasite numbers), Replicate 1 (C. parvum [2]): 99.92% | DNA Synthesis Assay: Mean % Inhibition of EdU-labeling (normalized to parasite numbers), Replicate 2 (C. parvum [2]): 100.00% | DNA Synthesis Assay: Mean % Inhibition of EdU-labeling (normalized to parasite numbers), Replicate 3 (C. parvum [2]): 87.22% | DNA Synthesis Assay: Mean % Inhibition of EdU-labeling (normalized to parasite numbers), Replicate 4 (C. parvum [2]): 73.51% | DNA Synthesis Assay: Mean % Inhibition of EdU-labeling (normalized to parasite numbers), Replicate 5 (C. parvum [2]; single replicate 5): 82.28% | efficacy in chronic NOD SCID gamma (NSG) mouse model (C. parvum [3]): not efficacious | activity in NOD SCID γ mouse model (C. parvum [3]; [9]): inactive | efficacy in acute, self-resolving IFN-γ KO mouse model (Cryptosporidium [5]): efficacious | activity in IFN-γ knockout mouse model (Cryptosporidium [5]; [9]): active

Cc1cccc(-n2ncc3c(O)nc(-n4nc(C)cc4NC(=O)c4cc5ccccc5o4)nc32)c1 [C-1]
Invasion Assay: Mean % Inhibition (parasites), Average (C. parvum [1]): -10.80% | Invasion Assay: Mean % Inhibition (parasites), Replicate 1a (C. parvum [1]): -29% | Invasion Assay: Mean % Inhibition (parasites), Replicate 2a (C. parvum [1]): -22% | Invasion Assay: Mean % Inhibition (parasites), Replicate 3a (C. parvum [1]): 9% | Invasion Assay: Mean % Inhibition (parasites), Replicate 4a (C. parvum [1]): -0.416% | DNA Synthesis Assay: Mean % Inhibition of EdU-labeling (normalized to parasite numbers), Average (C. parvum [2]): 91.44% | DNA Synthesis Assay: Mean % Inhibition of EdU-labeling (normalized to parasite numbers), Replicate 1 (C. parvum [2]): 100% | DNA Synthesis Assay: Mean % Inhibition of EdU-labeling (normalized to parasite numbers), Replicate 2 (C. parvum [2]): 100% | DNA Synthesis Assay: Mean % Inhibition of EdU-labeling (normalized to parasite numbers), Replicate 3 (C. parvum [2]): 74.32% | parasite egress during live microscopy (C. parvum [8]): inhibited parasite egress

From article PMC6478823, “A suite of phenotypic assays to ensure pipeline diversity when prioritizing drug-like Cryptosporidium growth inhibitors” (Nature Communications, 2019)
